Experimental data taken from ChEMBL document CHEMBL1777738, “3-Cyano-6-(5-methyl-3-pyrazoloamino)pyridines: selective Aurora A kinase inhibitors” (Bioorg Med Chem Lett, 2010).

Columns and labels:
Aurora kinase A = biological target: T1, Aurora kinase A (Homo sapiens, UniProt O14965)
T1 sequence (O14965 whole entry): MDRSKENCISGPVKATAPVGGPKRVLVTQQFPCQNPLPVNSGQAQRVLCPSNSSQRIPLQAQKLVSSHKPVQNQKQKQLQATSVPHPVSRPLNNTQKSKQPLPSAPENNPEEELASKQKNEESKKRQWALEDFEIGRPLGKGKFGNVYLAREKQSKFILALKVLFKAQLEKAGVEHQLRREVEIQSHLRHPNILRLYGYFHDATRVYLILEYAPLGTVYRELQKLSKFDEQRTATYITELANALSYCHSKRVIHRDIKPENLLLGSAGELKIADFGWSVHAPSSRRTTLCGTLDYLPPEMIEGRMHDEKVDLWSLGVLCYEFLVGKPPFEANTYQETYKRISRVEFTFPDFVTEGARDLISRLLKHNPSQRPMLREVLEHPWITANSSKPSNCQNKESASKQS
Description: Inhibition of phosphotransferase activity of recombinant aurora A expressed in HeLa cells

HCT-116 [1] = test: Antiproliferative activity against human HCT116 cells; format: functional, cell-based
[2] = Intrinsic clearance in human hepatic microsomes; format: ADME, Liver, Microsome
HCT-116 [3] = test: Antitumor activity against human HCT116 cells xenografted in mouse assessed as tumor growth inhibition at 30 mg/kg, ip qd for 14 days
HCT-116 [4] = test: Antitumor activity against human HCT116 cells xenografted in mouse assessed as tumor growth inhibition at 100 mg/kg, ip qd for 14 days
Aurora kinase B = Aurora kinase B (Homo sapiens, UniProt Q96GD4); test: Inhibition of aurora B
[5] = Cmax in rat at 30 mg/kg, po; format: ADME, organism-based; parameters: dose 30 mg/kg, route oral; settings: in vivo
[6] = Tmax in rat at 30 mg/kg, po; format: ADME, organism-based; parameters: dose 30 mg/kg, route oral; settings: in vivo
[7] = Half life in rat at 30 mg/kg, po; format: ADME, organism-based; parameters: dose 30 mg/kg, route oral; settings: in vivo
[8] = Drug level in rat serum at 30 mg/kg, po after 24 hrs; format: ADME, organism-based; parameters: dose 30 mg/kg, route oral; settings: read-out: Drug uptake
HCT-116 [9] = test: Antitumor activity against human HCT116 cells xenografted in mouse assessed as tumor growth inhibition at 30 mg/kg, po qd for 14 days; format: functional; settings: HCT-116, 336 h
Mus musculus = test: Toxicity in human HCT116 cells xenografted mouse assessed as reduction in body weight at 30 mg/kg, po qd for 14 days; format: organism-based, HCT-116; parameters: dose 30 mg/kg, route oral; settings: in vivo, 336 h
[10] = biological target: Proto-oncogene tyrosine-protein kinase Src (Homo sapiens, UniProt P12931); test: Inhibition of c-SRC
[11] = biological target: Tyrosine-protein kinase Fyn (Homo sapiens, UniProt P06241); test: Inhibition of Fyn
[12] = biological target: Tyrosine-protein kinase Yes (Homo sapiens, UniProt P07947); test: Inhibition of Yes
Chain of Tyrosine-protein kinase Yes (P07947 whole entry): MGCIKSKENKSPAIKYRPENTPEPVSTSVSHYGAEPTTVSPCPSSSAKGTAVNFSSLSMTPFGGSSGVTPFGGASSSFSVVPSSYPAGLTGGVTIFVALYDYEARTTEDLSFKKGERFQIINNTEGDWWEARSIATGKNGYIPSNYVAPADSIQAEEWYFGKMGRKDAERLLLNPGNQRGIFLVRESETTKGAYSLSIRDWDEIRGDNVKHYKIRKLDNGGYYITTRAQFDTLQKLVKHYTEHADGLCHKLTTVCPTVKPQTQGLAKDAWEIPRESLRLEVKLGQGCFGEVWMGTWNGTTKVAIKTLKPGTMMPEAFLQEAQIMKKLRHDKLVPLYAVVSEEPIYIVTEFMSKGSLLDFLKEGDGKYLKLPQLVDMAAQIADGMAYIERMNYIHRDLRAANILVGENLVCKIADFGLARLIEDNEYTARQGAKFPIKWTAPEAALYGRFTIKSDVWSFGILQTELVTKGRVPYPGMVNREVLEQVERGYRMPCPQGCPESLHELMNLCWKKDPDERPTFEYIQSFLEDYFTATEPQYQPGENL

Chain of Proto-oncogene tyrosine-protein kinase Src (P12931 2-536 limits assumed): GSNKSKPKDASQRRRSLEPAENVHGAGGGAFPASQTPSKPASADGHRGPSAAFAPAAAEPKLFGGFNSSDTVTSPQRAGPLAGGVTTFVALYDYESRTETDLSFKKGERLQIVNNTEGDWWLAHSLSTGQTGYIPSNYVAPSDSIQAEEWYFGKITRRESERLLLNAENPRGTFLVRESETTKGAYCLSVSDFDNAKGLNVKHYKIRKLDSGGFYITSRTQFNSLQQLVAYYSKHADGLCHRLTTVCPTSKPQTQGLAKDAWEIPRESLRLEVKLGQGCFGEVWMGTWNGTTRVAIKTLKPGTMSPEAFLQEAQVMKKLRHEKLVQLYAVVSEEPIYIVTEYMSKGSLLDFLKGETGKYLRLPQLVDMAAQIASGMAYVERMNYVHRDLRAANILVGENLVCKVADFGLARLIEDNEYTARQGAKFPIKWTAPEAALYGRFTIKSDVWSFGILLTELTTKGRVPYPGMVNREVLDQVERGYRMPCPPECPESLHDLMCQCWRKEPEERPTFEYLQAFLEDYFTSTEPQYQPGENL
Chain of Tyrosine-protein kinase Fyn (P06241 whole entry): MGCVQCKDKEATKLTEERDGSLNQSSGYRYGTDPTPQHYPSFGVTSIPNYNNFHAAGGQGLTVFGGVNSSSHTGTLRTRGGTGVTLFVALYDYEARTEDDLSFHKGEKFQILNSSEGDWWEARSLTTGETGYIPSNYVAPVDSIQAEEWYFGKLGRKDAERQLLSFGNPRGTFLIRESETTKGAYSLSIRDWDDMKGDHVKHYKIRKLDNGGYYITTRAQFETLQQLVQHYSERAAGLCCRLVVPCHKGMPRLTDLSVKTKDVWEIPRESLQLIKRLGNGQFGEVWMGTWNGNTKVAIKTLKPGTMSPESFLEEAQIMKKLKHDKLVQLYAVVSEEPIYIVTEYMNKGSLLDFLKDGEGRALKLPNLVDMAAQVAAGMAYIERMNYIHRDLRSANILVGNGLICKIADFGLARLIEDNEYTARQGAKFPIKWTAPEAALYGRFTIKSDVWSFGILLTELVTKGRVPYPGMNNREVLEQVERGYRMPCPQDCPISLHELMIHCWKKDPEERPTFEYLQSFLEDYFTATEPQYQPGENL
Chain of Aurora kinase B (Q96GD4 whole entry): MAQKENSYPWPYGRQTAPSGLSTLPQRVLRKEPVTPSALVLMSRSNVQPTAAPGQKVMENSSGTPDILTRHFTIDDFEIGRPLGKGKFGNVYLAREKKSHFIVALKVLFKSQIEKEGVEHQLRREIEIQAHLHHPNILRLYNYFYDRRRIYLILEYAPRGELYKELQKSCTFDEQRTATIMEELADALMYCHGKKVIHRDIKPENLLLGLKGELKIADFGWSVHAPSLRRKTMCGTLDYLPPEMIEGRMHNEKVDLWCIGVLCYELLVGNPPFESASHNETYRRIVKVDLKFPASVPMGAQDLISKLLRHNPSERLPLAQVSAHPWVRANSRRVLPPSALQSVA

Compound `Cc1cc(Nc2cc(C)c(C#N)c(NCCO)n2)[nH]n1` has a Ki (Aurora kinase A) of 20 nM.

Work on `Cc1cc(Nc2cc(C)c(C#N)c(N[C@@H](C)CCCC(C)(C)O)n2)[nH]n1` yielded an IC50 (HCT-116 [1]) of 52 nM, a CL [2] of 50 µL/min/mg and a Ki (Aurora kinase A) of 0.59 nM.

With `Cc1cc(Nc2cc(C)c(C#N)c(SCCCCCCN)n2)[nH]n1` the Ki (Aurora kinase A) was 28 nM.

`CCCCCCSc1nc(Nc2cc(C)n[nH]2)cc(C)c1C#N` showed a Ki (Aurora kinase A) of 3.8 nM.

Work on `Cc1cc(Nc2cc(N3CCN(C)CC3)nc(Sc3ccc(NC(=O)C4CC4)cc3)n2)n[nH]1` yielded a growth inhibition (GI) (HCT-116 [3]) of 60% and a growth inhibition (GI) (HCT-116 [4]) of 68%.

With `Cc1cc(Nc2cc(C)c(C#N)c(NC(C)CCCC(C)(C)O)n2)n[nH]1.Cl` (racemic) the Ki (Aurora kinase B) was 101 nM, the IC50 (HCT-116 [1]) was 115 nM and the Cmax [5] was 4930 nM. For the same compound, the Tmax [6] was 1.2 h, the half-life [7] was 3.3 h and the concentration at 24 h [8] was 52 nM. The inhibition in vivo at 30 mg/kg (HCT-116 [9]) was 59%, the Activity (Mus musculus) was “Non-toxic” and the Ki [10] was 26 nM. For the same compound, the Ki [11] was 28 nM, the CL [2] was 70 µL/min/mg and the Ki [12] was 24 nM. For the same compound, the Ki (Aurora kinase A) was 1.2 nM.

Work on `Cc1cc(Nc2cc(C)c(C#N)c(SCCCCCC(C)(C)O)n2)[nH]n1` yielded a Ki (Aurora kinase A) of 9.7 nM.

Compound `Cc1cc(Nc2cc(C)c(C#N)c(N[C@H](C)CCCC(C)(C)O)n2)n[nH]1` has a CL [2] of 110 µL/min/mg and a Ki (Aurora kinase A) of 66 nM.

`Cc1cc(Nc2cc(-c3ccccc3)c(C#N)c(Sc3ccc(NC(=O)C(C)C)cc3)n2)n[nH]1` gave a Ki (Aurora kinase A) of 310 nM.

`Cc1cc(Nc2cc(C)c(C#N)c(SCCCCCCO)n2)[nH]n1` showed a Ki (Aurora kinase A) of 8.5 nM.

In the case of `CC(=O)Nc1ccc(Sc2nc(Nc3cc(C)n[nH]3)cc(C)c2C#N)cc1`, the Ki (Aurora kinase A) is reported as 5.3 nM.

Work on `Cc1cc(Nc2cc(C)c(C#N)c(NCCCCCCO)n2)[nH]n1` yielded a Ki (Aurora kinase A) of 4.5 nM.

Work on `Cc1cc(Nc2cc(C)c(C#N)c(NCCCCCC(C)(C)O)n2)n[nH]1` yielded a Ki (Aurora kinase A) of 2.3 nM.
